In ChEMBL document CHEMBL1201862, “PubChem BioAssay data set” (2004):
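Growth conditions: 96-well plates. Treatment: test compound, 48 hours, 5 concentrations. Analysis: linear interpolation between bracketing concentrations; unreached endpoints set to highest concentration. Here, GI50 denotes the concentration required for 50% inhibition of growth.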 Calls of active or inactive are those of the source. Rule as the data show it: active = GI50 up to about 1.1 µM and inactive = higher. Peptide text beside a SMILES is read from it. * marks the point of attachment. Boc = CC(C)(C)OC(=O)*; OBn = c1ccc(CO*)cc1

Columns and labels:
Experiment in all cases: NCI tumour cell line growth inhibition, 48 h
LOX IMVI = system: LOX IMVI
OVCAR-3 = system: OVCAR-3
K562 = system: K562
786-0 = system: 786-0
SF-539 = system: SF-539
HOP-92 = system: HOP-92
A498 = system: A498
U-251 = system: U-251
SK-OV-3 = system: SK-OV-3
HCC 2998 = system: HCC 2998
NCI-H522 = system: NCI-H522
KM12 = system: KM12
MOLT-4 = system: MOLT-4
SNB-19 = system: SNB-19
UACC-257 = system: UACC-257
UACC-62 = system: UACC-62
ACHN = system: ACHN
MDA-N = system: MDA-N
MCF7 = system: MCF7
Hs-578T = system: Hs-578T

| Structure (SMILES) | GI50 (LOX IMVI) | GI50 (OVCAR-3) | GI50 (K562) | GI50 (786-0) | GI50 (SF-539) | GI50 (HOP-92) | GI50 (A498) | GI50 (U-251) | GI50 (SK-OV-3) | GI50 (HCC 2998) | GI50 (NCI-H522) | GI50 (KM12) | GI50 (MOLT-4) | GI50 (SNB-19) | GI50 (UACC-257) | GI50 (UACC-62) | GI50 (ACHN) | GI50 (MDA-N) | GI50 (MCF7) | GI50 (Hs-578T) |
| --- | --- | --- | --- | --- | --- | --- | --- | --- | --- | --- | --- | --- | --- | --- | --- | --- | --- | --- | --- | --- |
| Cc1ccc2c(C)c3ccc4ccccc4c3c[n+]2c1.[O-][Cl+3]([O-])([O-])[O-] | 34.6 µM (inactive) | 7.35 µM (inactive) | 56.5 µM (inactive) | 9.18 µM (inactive) | 11.5 µM (inactive) | 17.9 µM (inactive) | 60 µM (inactive) | 5.02 µM (inactive) | 17.7 µM (inactive) | 12.9 µM (inactive) | 11.2 µM (inactive) | 2.94 µM (inactive) | 3.99 µM (inactive) | 6.46 µM (inactive) | 12.4 µM (inactive) | 13.7 µM (inactive) | 58.7 µM (inactive) | – | – | – |
| COC(=O)C(/C(=N/N)C(=O)Nc1cc(Cl)ccc1Cl)c1nc2ccc([N+](=O)[O-])cc2nc1O (stereo not given) | > 100 µM (inactive) | > 100 µM (inactive) | 2.74 µM (inactive) | > 100 µM (inactive) | 93.3 µM (inactive) | 30.7 µM (inactive) | 58.5 µM (inactive) | > 100 µM (inactive) | > 100 µM (inactive) | 74.6 µM (inactive) | 21.3 µM (inactive) | > 100 µM (inactive) | 17 µM (inactive) | > 100 µM (inactive) | > 100 µM (inactive) | > 100 µM (inactive) | 39.1 µM (inactive) | – | – | – |
| N#Cc1ccc(/C=N/C23CC4CC(CC(C4)C2)C3)cc1 | 76.6 µM (inactive) | > 100 µM (inactive) | 39.5 µM (inactive) | > 100 µM (inactive) | > 100 µM (inactive) | 83.9 µM (inactive) | > 100 µM (inactive) | > 100 µM (inactive) | > 100 µM (inactive) | > 100 µM (inactive) | > 100 µM (inactive) | > 100 µM (inactive) | 78.5 µM (inactive) | > 100 µM (inactive) | > 100 µM (inactive) | > 100 µM (inactive) | > 100 µM (inactive) | – | – | – |
| CC(=O)C1C(=O)N(C(C)C)C[C@@H]2CCC(=O)C[C@H]12 (stereo not given in full) | > 100 µM (inactive) | > 100 µM (inactive) | > 100 µM (inactive) | > 100 µM (inactive) | > 100 µM (inactive) | > 100 µM (inactive) | > 100 µM (inactive) | > 100 µM (inactive) | > 100 µM (inactive) | > 100 µM (inactive) | > 100 µM (inactive) | > 100 µM (inactive) | > 100 µM (inactive) | > 100 µM (inactive) | > 100 µM (inactive) | > 100 µM (inactive) | – | – | – | – |
| CC1=C(c2ccc(C)cc2)NC(=S)C(C)C(c2ccc(C)cc2)=N1 (stereo not given) | 76.2 µM (inactive) | – | 35.8 µM (inactive) | > 100 µM (inactive) | 92.5 µM (inactive) | – | 26 µM (inactive) | > 100 µM (inactive) | > 100 µM (inactive) | 89.3 µM (inactive) | – | 49.7 µM (inactive) | 32.8 µM (inactive) | > 100 µM (inactive) | 51.1 µM (inactive) | 89.7 µM (inactive) | 50.2 µM (inactive) | 83.9 µM (inactive) | 42 µM (inactive) | – |
| CCOC(=O)C1C2CCC1CC(=NNc1ccc([N+](=O)[O-])cc1[N+](=O)[O-])C2 (stereo not given) | > 50 µM (inactive) | > 50 µM (inactive) | 29.2 µM (inactive) | > 50 µM (inactive) | > 50 µM (inactive) | 15.8 µM (inactive) | – | > 50 µM (inactive) | > 50 µM (inactive) | 45.1 µM (inactive) | > 50 µM (inactive) | 48.9 µM (inactive) | 31.4 µM (inactive) | > 50 µM (inactive) | > 50 µM (inactive) | > 50 µM (inactive) | > 50 µM (inactive) | > 50 µM (inactive) | > 50 µM (inactive) | – |
| N#CCCOc1cccc(C2(N3CCCCC3)CCCCC2)c1 | > 100 µM (inactive) | > 100 µM (inactive) | > 100 µM (inactive) | > 100 µM (inactive) | > 100 µM (inactive) | – | > 100 µM (inactive) | > 100 µM (inactive) | > 100 µM (inactive) | – | > 100 µM (inactive) | > 100 µM (inactive) | > 100 µM (inactive) | > 100 µM (inactive) | > 100 µM (inactive) | > 100 µM (inactive) | > 100 µM (inactive) | – | > 100 µM (inactive) | > 100 µM (inactive) |
| COC(=O)Cc1cc(=O)oc2c1C(=O)CCC2 | > 100 µM (inactive) | > 100 µM (inactive) | > 100 µM (inactive) | > 100 µM (inactive) | > 100 µM (inactive) | > 100 µM (inactive) | > 100 µM (inactive) | > 100 µM (inactive) | > 100 µM (inactive) | > 100 µM (inactive) | > 100 µM (inactive) | > 100 µM (inactive) | > 100 µM (inactive) | > 100 µM (inactive) | > 100 µM (inactive) | > 100 µM (inactive) | > 100 µM (inactive) | – | – | – |
| Cc1c(C(=O)/C=C/c2c(Cl)cccc2Cl)c(=O)n(-c2ccccc2)n1C | 11.8 µM (inactive) | 19.1 µM (inactive) | – | 11.1 µM (inactive) | > 10 µM (inactive) | 17.6 µM (inactive) | 22.4 µM (inactive) | 0.0147 µM (active) | 43 µM (inactive) | 23 µM (inactive) | 12.8 µM (inactive) | 15.9 µM (inactive) | 5.38 µM (inactive) | 31.9 µM (inactive) | 20.9 µM (inactive) | 21.6 µM (inactive) | 25.8 µM (inactive) | – | – | – |
| Cn1nc(-c2ccccc2)nc1[N+](=O)[O-] | > 10 µM (inactive) | > 10 µM (inactive) | > 10 µM (inactive) | > 10 µM (inactive) | > 10 µM (inactive) | > 10 µM (inactive) | > 10 µM (inactive) | > 10 µM (inactive) | > 10 µM (inactive) | > 10 µM (inactive) | > 10 µM (inactive) | > 10 µM (inactive) | > 10 µM (inactive) | > 10 µM (inactive) | > 10 µM (inactive) | > 10 µM (inactive) | > 10 µM (inactive) | > 10 µM (inactive) | – | > 10 µM (inactive) |
| [N-]=[N+]=C1N=CN=C1c1nc[nH]n1 | 12 µM (inactive) | 32.2 µM (inactive) | 14.9 µM (inactive) | 21.9 µM (inactive) | 15.3 µM (inactive) | 12.4 µM (inactive) | 20.2 µM (inactive) | 27 µM (inactive) | > 100 µM (inactive) | 63 µM (inactive) | 30.7 µM (inactive) | 93.5 µM (inactive) | 6.27 µM (inactive) | 80.2 µM (inactive) | 57 µM (inactive) | 16.6 µM (inactive) | 39 µM (inactive) | 41.9 µM (inactive) | 81.1 µM (inactive) | – |
| CC(C)(C)c1cc(C(P(=O)(O)O)P(=O)(O)O)cc(C(C)(C)C)c1O | > 100 µM (inactive) | > 100 µM (inactive) | > 100 µM (inactive) | > 100 µM (inactive) | > 100 µM (inactive) | > 100 µM (inactive) | > 100 µM (inactive) | > 100 µM (inactive) | > 100 µM (inactive) | > 100 µM (inactive) | > 100 µM (inactive) | > 100 µM (inactive) | > 100 µM (inactive) | > 100 µM (inactive) | > 100 µM (inactive) | > 100 µM (inactive) | > 100 µM (inactive) | – | – | – |
| COc1cc(O)c2c(c1)C(=O)C1=C(C2=O)C(O)C[C@@](C)(O)C1 (stereo not given in full) | 0.424 µM (active) | 0.822 µM (active) | 0.457 µM (active) | 3.08 µM (inactive) | 2.57 µM (inactive) | 1.1 µM (active) | 1.28 µM (inactive) | 2.49 µM (inactive) | 5.9 µM (inactive) | 1.47 µM (inactive) | 0.71 µM (active) | 2.47 µM (inactive) | 2.22 µM (inactive) | 4.34 µM (inactive) | 0.335 µM (active) | 1.37 µM (inactive) | 0.684 µM (active) | – | – | – |
| CC(NC(=O)C(NC(=O)OC(C)(C)C)C(C)C)C(=O)N1CCCC1C(=O)NCC(=O)NC(C(=O)NCC(=O)OCc1ccccc1)C(C)C (stereo not given) (Boc-VAPGVG-OBn; configuration not given here) | > 100 µM (inactive) | > 100 µM (inactive) | > 100 µM (inactive) | > 100 µM (inactive) | > 100 µM (inactive) | > 100 µM (inactive) | > 100 µM (inactive) | > 100 µM (inactive) | > 100 µM (inactive) | > 100 µM (inactive) | > 100 µM (inactive) | – | > 10 µM (inactive) | > 100 µM (inactive) | > 100 µM (inactive) | 66.4 µM (inactive) | > 100 µM (inactive) | > 100 µM (inactive) | > 100 µM (inactive) | – |
| C[C@]12CC[C@H](O)C[C@H]1CC[C@@H]1[C@@H]2CC[C@]2(C)[C@@H](C3=CC(=O)OC3)CC[C@]12O [DIGITOXIGENIN] | 0.0547 µM (active) | 0.0367 µM (active) | 0.0536 µM (active) | 0.0447 µM (active) | 0.0356 µM (active) | 0.188 µM (active) | 0.125 µM (active) | 0.199 µM (active) | 0.111 µM (active) | 0.235 µM (active) | < 0.01 µM (active) | 0.713 µM (active) | < 0.01 µM (active) | 0.851 µM (active) | 0.303 µM (active) | 0.36 µM (active) | < 0.0125 µM (active) | 0.168 µM (active) | – | 0.0673 µM (active) |
